Measurements taken from patent US20230040182A1, “ARYL HETEROBICYCLIC COMPOUNDS AS Kv1.3 POTASSIUM SHAKER CHANNEL BLOCKERS” (priority 2019, published 2023).

What follows are compounds tested against T1, Kv1.3 potassium channel (Homo sapiens, UniProt P22001) (assay: Kv1.3 potassium channel blocker activity, automated whole-cell patch clamp (Patchliner)). Conditions: CHO-K1 cells stably expressing Kv1.3; whole-cell current, Hill fit.
T1 construct: expressed in transfected cells
Assay type: cell-based
Method: Example 9. Evaluation of Kv1.3 Potassium Channel Blocker Activities
This assay is used to evaluate the disclosed compounds' activities as Kv1.3 potassium channel blockers.
CHO-K1 cells stably expressing Kv1.3 were grown in DMEM containing 10% heat-inactivated FBS, 1 mM Sodium Pyruvate, 2 mM L-Glutamine and G418 (500 μg/ml). Cells were grown in culture flasks at 37° C. in a […] incubator.
The cells were bathed in an extracellular solution containing 140 mM NaCl, 4 mM KCl, 2 mM CaCl2, 1 mM MgCl2, 5 mM Glucose, 10 mM HEPES; pH adjusted to 7.4 with NaOH; 295-305 mOsm. The internal solution contained 50 mM KCl, 10 mM NaCl, 60 mM KF, 20 mM EGTA, 10 mM HEPES; pH adjusted to 7.2 with KOH; 285 mOsm. All compounds were dissolved in DMSO at 30 mM. Compound stock solutions were freshly diluted with external solution to concentrations of 30 nM, 100 nM, 300 nM, 1 μM, 3 μM, 10 μM, 30 μM and 100 μM. The highest content of DMSO (0.3%) was present in 100 μM.
The currents were evoked by applying 100 ms depolarizing pulses from −90 mV (holding potential) to +40 mV were applied with 0.1 Hz frequency. Control (compound-free) and compound pulse trains for each compound concentration applied contained 20 pulses. 10-second breaks were used between pulse trains (see Table A below).
Whole-cell current recordings and compound application were enabled by means of an automated patch clamp platform Patchliner (Nanion Technologies GmbH). EPC 10 patch clamp amplifier (HEKA Elektronik Dr. Schulze GmbH) along with Patchmaster software (HEKA Elektronik Dr. Schulze GmbH) was used for data acquisition. Data were sampled at 10 kHz without filtering. Passive leak currents were subtracted online using a P/4 procedure (HEKA Elektronik Dr. Schulze GmbH). Increasing compound concentrations were applied consecutively to the same cell without washouts in between. Total compound incubation time before the next pulse train was not longer than 10 seconds. Peak current inhibition was observed during compound equilibration.
AUC and peak values were obtained with Patchmaster (HEKA Elektronik Dr. Schulze GmbH). To determine IC50, the last single pulse in the pulse train corresponding to a given compound concentration was used. Obtained AUC and peak values in the presence of compound were normalized to control values in the absence of compound. Using Origin (OridinLab), IC50 was derived from data fit to Hill equation: Icompound/Icontrol=(100−A)/(1+([compound]/IC50)nH)+A, where IC50 value is the concentration at which current inhibition is half-maximal, [compound] is the applied compound concentration, A is the fraction of current that is not blocked and nH is the Hill coefficient.

T1 sequence (P22001 whole entry): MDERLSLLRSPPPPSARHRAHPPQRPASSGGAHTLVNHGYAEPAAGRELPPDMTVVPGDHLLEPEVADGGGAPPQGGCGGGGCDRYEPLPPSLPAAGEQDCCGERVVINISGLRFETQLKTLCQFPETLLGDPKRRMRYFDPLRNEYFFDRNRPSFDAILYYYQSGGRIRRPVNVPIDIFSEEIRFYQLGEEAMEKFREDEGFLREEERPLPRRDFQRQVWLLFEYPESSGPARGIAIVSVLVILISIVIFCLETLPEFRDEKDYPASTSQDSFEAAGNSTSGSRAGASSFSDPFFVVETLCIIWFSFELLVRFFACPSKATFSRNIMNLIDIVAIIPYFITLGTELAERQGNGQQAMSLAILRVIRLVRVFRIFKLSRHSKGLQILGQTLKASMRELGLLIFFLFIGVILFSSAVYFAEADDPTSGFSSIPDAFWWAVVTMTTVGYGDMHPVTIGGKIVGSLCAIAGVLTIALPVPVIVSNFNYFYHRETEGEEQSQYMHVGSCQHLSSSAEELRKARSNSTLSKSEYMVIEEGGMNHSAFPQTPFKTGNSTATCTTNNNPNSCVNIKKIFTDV

IC50	SMILES
< 1 µM	Cc1ccc(O)c([C@@H]2CCN3C(=O)[C@@H](CO)NC(=O)[C@@H]3C2)c1Cl (relative stereo) [Compound 28, (8R,9aS)-rel-8-(2-chloro-6-hydroxy-3-methylphenyl)-3-((3R)-hydroxymethyl)-hexahydro-2H-pyrido[1,2-a]pyrazine-1,4-dione]
< 1 µM	NC[C@H]1NC(=O)[C@@H]2C[C@H](c3c(O)ccc(Cl)c3Cl)CCN2C1=O (relative stereo) [Compound 38, (8R,9aS)-rel-3-((3R)-aminomethyl)-8-(2,3-dichloro-6-hydroxyphenyl)-hexahydro-2H-pyrido[1,2-a]pyrazine-1,4-dione; trifluoroacetic acid]
< 10 µM	Cc1c(Cl)ccc(O)c1[C@@H]1CCN2C(=O)[C@@H](CO)NC(=O)[C@@H]2C1 (relative stereo) [Compound 49, (8R,9aS)-rel-8-(3-chloro-6-hydroxy-2-methylphenyl)-3-((3R)-hydroxymethyl)-hexahydro-2H-pyrido[1,2-a]pyrazine-1,4-dione]
< 1 µM	O=C1NC(=O)N2CC[C@@H](c3c(O)ccc(Cl)c3Cl)C[C@@H]12 (single isomer, unassigned; diastereoisomer 2) [Compound 19, 7-(2,3-dichloro-6-hydroxyphenyl)tetrahydro-imidazo[1,5-a]pyridine-1,3(2H,5H)-dione diastereoisomer 2]
< 10 µM	O=C1[C@H]2C[C@H](O)CN2C(=O)[C@H]2C[C@@H](c3c(O)ccc(Cl)c3Cl)CCN12 (single isomer, unassigned; isomer 1) [Compound 23, 7-(2,3-dichloro-6-hydroxyphenyl)-2-hydroxyhexahydro-1H-pyrido[1,2-a]pyrrolo[1,2-d]pyrazine-5,11(5aH,11aH)-dione isomer 1]
< 10 µM	O=C1[C@@H]2C[C@H](c3c(O)ccc(Cl)c3Cl)CCN2C(=O)[C@@H]2[C@H](O)CCN12 (single isomer, unassigned; isomer 1) [Compound 29, 7-(2,3-dichloro-6-hydroxyphenyl)-1-hydroxyhexahydro-1H-pyrido[1,2-a]pyrrolo[1,2-d]pyrazine-5,11(5aH,11aH)-dione isomer 1]
< 1 µM	O=C1[C@H]2[C@H](O)CCN2C(=O)[C@H]2C[C@@H](c3c(O)ccc(Cl)c3Cl)CCN12 (single isomer, unassigned; isomer 2) [Compound 17, 7-(2,3-dichloro-6-hydroxyphenyl)-1-hydroxyhexahydro-1H-pyrido[1,2-a]pyrrolo[1,2-d]pyrazine-5,11(5aH,11aH)-dione isomer 2]
< 10 µM	O=C1[C@H]2C[C@@H](c3c(O)ccc(Cl)c3Cl)CCN2C(=O)CN1C1CC(O)C1 (single isomer, unassigned; isomer 3) [Compound 34, 8-(2,3-dichloro-6-hydroxyphenyl)-2-[3-hydroxycyclobutyl]-hexahydropyrido[1,2-a]pyrazine-1,4-dione isomer 3]
< 10 µM	O=C1[C@@H]2C[C@H](O)CN2C(=O)[C@H]2C[C@@H](c3c(O)ccc(Cl)c3Cl)CCN12 (single isomer, unassigned; isomer 3) [Compound 45, 7-(2,3-dichloro-6-hydroxyphenyl)-2-hydroxyhexahydro-1H-pyrido[1,2-a]pyrrolo[1,2-d]pyrazine-5,11(5aH,11aH)-dione isomer 3]
< 1 µM	O=C1[C@H]2[C@H](O)CCN2C(=O)[C@@H]2C[C@H](c3c(O)ccc(Cl)c3Cl)CCN12 (single isomer, unassigned; isomer 3) [Compound 69, 7-(2,3-dichloro-6-hydroxyphenyl)-1-hydroxyhexahydro-1H-pyrido[1,2-a]pyrrolo[1,2-d]pyrazine-5,11(5aH,11aH)-dione isomer 3]
< 10 µM	O=C1[C@H]2C[C@@H](c3c(O)ccc(Cl)c3Cl)CCN2C(=O)CN1C1CC(O)C1 (single isomer, unassigned; isomer 4) [Compound 5, 8-(2,3-dichloro-6-hydroxyphenyl)-2-[3-hydroxycyclobutyl]-hexahydropyrido[1,2-a]pyrazine-1,4-dione isomer 4]
< 10 µM	C[C@@H]1NC(=O)C2CC(c3c(O)ccc(Cl)c3Cl)CCN2C1=O (stereo partly drawn) [Compound 4, (3S)-8-(2,3-dichloro-6-hydroxyphenyl)-3-methyl-octahydro-1H-pyrido[1,2-a]pyrazine-1,4-dione]
< 10 µM	O=C1[C@H]2C[C@@H](c3cc(Cl)c(Cl)cc3O)CCN2C(=O)CN1C1CNC1 [Compound 10, (8S,9aR)-2-(azetidin-3-yl)-8-(4,5-dichloro-2-hydroxyphenyl)hexahydro-4H-pyrido[1,2-a]pyrazine-1,4(6H)-dione]
< 1 µM	CC[C@H]1NC(=O)[C@H]2C[C@@H](c3c(O)ccc(Cl)c3Cl)CCN2C1=O [Compound 11, (8S,9aR)-8-(2,3-dichloro-6-hydroxyphenyl)-3-(3R)-ethyl-hexahydro-2H-pyrido[1,2-a]pyrazine-1,4-dione]
< 30 µM	CN1C(=O)[C@H]2C[C@@H](c3c(O)ccc(Cl)c3Cl)CCN2C(=O)[C@H]1CO [Compound 13, (3R,8S,9aR)-8-(2,3-dichloro-6-hydroxyphenyl)-3-(hydroxymethyl)-2-methyl-hexahydropyrido[1,2-a]pyrazine-1,4-dione]
< 10 µM	O=C1NNC(=O)N2CC[C@H](c3c(O)ccc(Cl)c3Cl)C[C@H]12 [Compound 15, (8S,9aR)-8-(2,3-dichloro-6-hydroxyphenyl)hexahydro-4H-pyrido[1,2-d][1,2,4]triazine-1,4(6H)-dione]
< 10 µM	C[C@@H](O)[C@H]1NC(=O)[C@H]2C[C@@H](c3c(O)ccc(Cl)c3Cl)CCN2C1=O [Compound 16, (3R,8S,9aR)-8-(2,3-dichloro-6-hydroxyphenyl)-3-[(1R)-1-hydroxyethyl]-hexahydro-2H-pyrido[1,2-a]pyrazine-1,4-dione]
< 10 µM	O=C1[C@H]2C[C@@H](c3c(O)ccc(Cl)c3Cl)CCN2C(=O)CN1C(CO)CO [Compound 21, (8S,9aR)-8-(2,3-dichloro-6-hydroxyphenyl)-2-(1,3-dihydroxypropan-2-yl)hexahydro-4H-pyrido[1,2-a]pyrazine-1,4(6H)-dione]
< 10 µM	O=C1[C@H]2[C@@H](O)CCN2C(=O)[C@H]2C[C@@H](c3c(O)ccc(Cl)c3Cl)CCN12 [Compound 25, (1S,5aR,7S,11aR)-7-(2,3-dichloro-6-hydroxyphenyl)-1-hydroxyhexahydro-1H-pyrido[1,2-a]pyrrolo[1,2-d]pyrazine-5,11(5aH,11aH)-dione]
< 1 µM	NN1C(=O)[C@H]2C[C@@H](c3c(O)ccc(Cl)c3Cl)CCN2C1=O [Compound 27, (7S,8aR)-2-amino-7-(2,3-dichloro-6-hydroxyphenyl)tetrahydro-imidazo[1,5-a]pyridine-1,3(2H,5H)-dione]
< 1 µM	O=C1N[C@H](CO)C(=O)N2CC(c3c(O)ccc(Cl)c3Cl)CC12 (stereo partly drawn) [Compound 31, (3R)-7-(2,3-dichloro-6-hydroxyphenyl)-3-(hydroxymethyl)hexahydro-pyrrolo[1,2-a]pyrazine-1,4-dione]
< 1 µM	O=C1NNC(=O)N2CC[C@@H](c3c(O)ccc(Cl)c3Cl)C[C@@H]12 [Compound 33, (8R,9aS)-8-(2,3-dichloro-6-hydroxyphenyl)hexahydro-4H-pyrido[1,2-d][1,2,4]triazine-1,4(6H)-dione]
< 10 µM	O=C1[C@H]2C[C@@H](c3c(O)ccc(Cl)c3Cl)CCN2C(=O)CN1CCO [Compound 37, (8S,9aR)-8-(2,3-dichloro-6-hydroxyphenyl)-2-(2-hydroxyethyl)-hexahydropyrido[1,2-a]pyrazine-1,4-dione]
< 10 µM	CC(C)[C@@H](O)[C@@H]1NC(=O)[C@H]2C[C@@H](c3c(O)ccc(Cl)c3Cl)CCN2C1=O [Compound 39, (3S,8S,9aR)-8-(2,3-dichloro-6-hydroxyphenyl)-3-[(1R)-1-hydroxy-2-methylpropyl]-hexahydro-2H-pyrido[1,2-a]pyrazine-1,4-dione]
< 1 µM	O=C1[C@@H]2C[C@H](c3c(O)ccc(Cl)c3Cl)CCN2C(=O)[C@H]2CC(O)CCN12 (stereo partly drawn) [Compound 40, (2R,6aR,12aS)-2-(2,3-dichloro-6-hydroxyphenyl)-8-hydroxyoctahydro-dipyrido[1,2-a:1′,2′-d]pyrazine-6,12(2H,6aH)-dione]
